The text below walks through data of article PMC10955127 (Frontiers in Pharmacology, 2024).

Usually half-life stands for how long it takes for the measured level to halve. What is called NOAEL is the highest dose or exposure tested at which no adverse effect was seen. The pKa is the pH at which an ionisable group is half protonated. A word on the fraction unbound: it is free concentration divided by total concentration. A higher fraction unbound goes with weak binding.

The test system of series [1] is androgen receptor (AR). Also noted: method as in ToxCast. Conditions: ref ToxCast, cited from earlier work.
Series [2] can be described thus: in vitro. In kind it is in vitro ADME. As to the method:
[…]. Samples were precipitated with an equal volume of acetonitrile containing internal standards (1 μM diazepam, 1 μM griseofulvin, 10 μM diclofenac) and then centrifuged (4800 x g, room temperature, 5 min) before analysis by UHPLC-MS/HRMS.
The amount of compound in the samples was expressed as percentage of remaining compound compared to time point zero (=100%). These percentages were plotted against the corresponding time points. In vitro intrinsic clearance (CLint) and half-life (t1/2) estimates were determined using the rate of precursor disappearance and following formula, based on the well-stirred liver model (Obach 1999):
t1/2 = half-life [min]; k = slope from the linear regression of log [test compound] versus time plot [1/min]
Where CLint = in vitro intrinsic clearance [μl/min/10^6 cells]; t1/2 = half-life [min]; k = slope of the linear regression of log [test compound] versus time plot [1/min]; V = ratio of incubation volume and cell number and fu = unbound fraction in the blood. […]

Series [3] relates to androgen receptor. Also noted: method as in ToxCast database. Conditions: ref ToxCast database; cited from earlier work.
The test system of series [4] is Thyroid (TR and TPO only). Also noted: method as in ToxCast. The following applies: ref ToxCast, cited from earlier work; for Thyroid (TR and TPO only): Experimental Data (call): Tier 0.
Series [5] is described as follows: In vitro skin penetration and metabolism, fresh viable pig skin on static Franz cells. An excerpt: Fresh viable pig skin (without hot steam treatment, by-product from meat industry) was obtained from a local, commercial butcher (Hammoor, Germany). The back skin was from female pigs (bred from “Dänische Landrasse” (female) and Pietrain (male) pigs, ~130 days old, 100 kg body weight). Pig skin samples were gently dry-shaved and washed with water before use. For the experiment, 2 replicate discs from each of 3 donors were used.
Skin of full-thickness was mounted on static Franz cells with a 4.9 cm² application area. The receptor compartment of the diffusion cell was filled with approx. 5 ml RF (1% BSA, 0.9% NaCl, 0.05% gentamycin sulfate in water), above a magnetic stirrer set to low rotation. […] The experiment was conducted using non-occluded conditions.
The dermal absorption was calculated as the total amount present within epidermis (without the amount in the total SC strips), dermis and RF.

Series [6] has as its system TSHR. Also noted: method as in ToxCast database. Conditions: ref ToxCast database; cited from earlier work.
The subject of series [7] is Aromatase. Also on record: method as in ToxCast database. The following applies: ref ToxCast database; cited from earlier work.
Series [8] relates to androgen receptor. Also noted: method as in ToxCast database. Conditions: ref ToxCast database; cited from earlier work. The source holds these as a separate data set.
Series [9] deals with thyroid pathway. Also noted: method as in ToxCast database. Conditions: ref ToxCast database; cited from earlier work.
In series [10] the test system is thyroid pathway. Also noted: method as in ToxCast database. Conditions: ref ToxCast database; cited from earlier work. The source holds these as a separate data set.
For series [11] the following is noted: ref PubChem or the ECHA database; cited from earlier work.
Series [12] has as its system estrogen receptor. Also noted: method as in ToxCast database. Conditions: ref ToxCast database, cited from earlier work.
In series [13] the test system is androgen receptor. Also noted: method as in ToxCast database. The following applies: ref ToxCast database; cited from earlier work. This is another data set of the same source.
In series [14] the test system is estrogen receptor (ER). Conditions: cited from earlier work; for Estrogen: Experimental Data (call): Tier 0; for Estrogen: Experimental Data (call) / Estrogen: assays active / assays: ref ToxCast.
Series [15] concerns estrogen receptor. Also on record: method as in ToxCast database. The following applies: ref ToxCast database, cited from earlier work. This is another data set of the same source.
Series [16] concerns estrogen receptor. Also noted: method as in ToxCast database. The following applies: ref ToxCast database, cited from earlier work. The source holds these as a separate data set.
Series [17] has as its system estrogen receptor. Also on record: method as in ToxCast database. The following applies: ref ToxCast database; cited from earlier work.
Series [18] relates to androgen receptor. Also noted: method as in ToxCast database. The following applies: ref ToxCast database; cited from earlier work. This is another data set of the same source.
Series [19] relates to thyroid pathway. Also noted: method as in ToxCast database. The following applies: ref ToxCast database; cited from earlier work. This is another data set of the same source.
Series [20] relates to mice. The following applies: KS2; cited from earlier work.
On the set-up of series [21]: method as in SCCS, 2023a. Conditions: frozen human skin, 14C-radio-labelled BSal in a formulation at 0.5%; ref SCCS, 2023a; cited from earlier work.
Series [22] has as its system H295R cell line. Also on record: method as in ToxCast database. The following applies: ref ToxCast database, cited from earlier work.
The nature of series [23]: in vivo. The following applies: human.
Series [24] concerns H295R cell line. Also on record: method as in ToxCast database. Conditions: ref ToxCast database, cited from earlier work. This is another data set of the same source.
The subject of series [25] is H295R cell line. Also on record: method as in ToxCast database. The following applies: ref ToxCast database, cited from earlier work. The source holds these as a separate data set.
The conditions of series [26]: ref PubChem or the ECHA database; cited from earlier work. This is another data set of the same source.
The conditions of series [27]: at 35°C; ref PubChem or the ECHA database; cited from earlier work.
Details of series [28]: method as in PubChem or the ECHA database. The following applies: at 25°C; ref PubChem or the ECHA database; cited from earlier work.
The conditions of series [29]: 24.14 mg/kg/day product, 0.5% BSal, 10.5% absorption.
The test system of series [30] is THRa. Also noted: method as in ToxCast database. The following applies: ref ToxCast database; cited from earlier work.
The subject of series [31] is estrogen receptor. Also on record: method as in ToxCast database. Conditions: ref ToxCast database, cited from earlier work. The source holds these as a separate data set.
Series [32] can be described thus: Fraction unbound in the plasma (Fup). Conditions: human.
Details of series [33]: method as in ToxCast database. The following applies: ref ToxCast database; cited from earlier work.
The subject of series [34] is MCF-7 cells. Format: cell-based. Conditions: 1,000 µM SA or 1 μM trichostatin A, analysis Method 1.

Where two headings read alike, the source gives them in different places.

Regarding `OCc1ccccc1` [BAlc, benzyl alcohol], in [1] (Tier 0), the “Androgen: Experimental Data (call)” value was “Negative”. Moreover, the “Androgen: assays active / assays” value in series [1] is reported as 0/14 active. Besides, the “Time within which rapidly metabolized in PHH” value in series [2] (both, human, hepatocytes, 5 µM) was at most 30 min. The “Androgen pathway Reporter protein Antagonist: Call” value in series [3] is given as “Negative”. In series [4], the “Thyroid (TR and TPO only): Experimental Data (call)” value is recorded as “Negative”; the “Thyroid (TR and TPO only): assays active / assays” value is 0/12 active. For the same compound, in series [5], the Stratum corneum entry is “< LOQ*” and the Surface result was “< LOQ*”. Further, in series [6], the “Thyroid pathway Regulation of transcription factor activity (TSHR): Call” value is recorded as “Negative”. The “Steroidogenesis Aromatase: Call” value in [7] is given as “Negative”. For the same compound, the “Androgen pathway mRNA induction: Call” value in series [8] was “Negative”. Also, the “Thyroid pathway Reporter protein Antagonist: Call” value in [9] is given as “Negative”. Further, the “Thyroid pathway mRNA induction: Call” value in series [10] is recorded as “Negative”. In addition, in series [11], the Vapor pressure was 7 Pa. Further, the “Estrogen pathway Reporter protein Agonist: Call” value in series [12] is recorded as “Negative”. For the same compound, the “Androgen pathway Dimerisation: Call” value in [13] is “Negative”. In [14], the “Estrogen: Experimental Data (call)” value was “Negative” and the “Estrogen: assays active / assays” value is given as 0/18 active. Besides, in series [15], the “Estrogen pathway mRNA induction: Call” value is on record as “Negative”. Further, the “Estrogen pathway Dimerisation: Call” value in series [16] is on record as “Negative”. Also, the “Estrogen pathway Reporter protein Antagonist: Call” value in series [17] is “Negative”. Also, in [18], the “Androgen pathway Reporter protein Agonist: Call” value is “Negative”. The “Thyroid pathway Reporter protein Agonist: Call” value in series [19] is reported as “Negative”. The “Developmental Toxicity NOAEL” value in [20] is given as “NOAEL: 200 mg/kg”.
Turning to `O=C(OCc1ccccc1)c1ccccc1O` [BSal, benzyl salicylate], the Skin absorption in series [21] is 9.01 % of the applied dose. For the same compound, the “Steroidogenesis Corticosterone in H295R cell line: call” value in series [22] is reported as “Positive”. In addition, the AC50 was 36.8 µM in series [22] (read-out: Steroidogenesis Corticosterone in H295R cell line: AC50); 54.7 µM in series [24] (read-out: Steroidogenesis 17alpha-hydroxyprogesterone in H295R cell line: AC50); 43.7 µM in series [25] (read-out: Steroidogenesis Progesterone in H295R cell line: AC50); 39.2 µM in [12] (read-out: Estrogen pathway Reporter protein Agonist: AC50); 36.5 µM in series [14] (binding assay for ERα, assay name OT_ER_ERaERa_0480, ref ToxCast database, read-out: Lowest reported AC50); 37 µM in series [15] (read-out: Estrogen pathway mRNA induction: AC50). Further, the AC50 in [16] (read-out: Estrogen pathway Dimerisation: AC50) was 36.5 µM; in [31] (read-out: Estrogen pathway Cell Proliferation: AC50), 85.2 µM. Also, the Initial concentration detected in series [2] (after 90, 120, and 240 min) is 0.1%–0.2%. In [2] (after 30 min, 20 µM BSal), this compound yielded an Initial concentration remaining of 10%. In series [2] (both sexes, human, hepatocytes, 20 µM, 0.8 million cells/ml, read-out: Half-life in PHH), the half-life at 20 µM came to 9.2 min. The hepatocyte CLint at 20 µM in [2] (both sexes, human, hepatocytes, PHH, read-out: In vitro intrinsic clearance (CLint, in vitro)) was 94.2 µL/min/1e6 cells. In addition, in series [4], the “Thyroid (TR and TPO only): Experimental Data (call)” value is given as “Negative”. For the same compound, the “Thyroid (TR and TPO only): assays active / assays” value in series [4] is on record as 0/11 active. Moreover, the Receptor fluid result in series [5] is given as “< LOQ*”. In series [23], the NOAEL came out at 123 mg/kg/day. Moreover, in series [6], the “Thyroid pathway Regulation of transcription factor activity (TSHR): Call” value is “Negative”. Also, the “Steroidogenesis 17alpha-hydroxyprogesterone in H295R cell line: call” value in series [24] was “Positive”. The “Steroidogenesis Progesterone in H295R cell line: call” value in series [25] was “Positive”. In addition, in [7], the “Steroidogenesis Aromatase: Call” value is reported as “Negative”. In [26], the Water solubility is 8800 µg/mL. In addition, the “Partition coefficient (Log Pow)” value in series [27] is 4. Moreover, in [9], the “Thyroid pathway Reporter protein Antagonist: Call” value is “Negative”. In [10], the “Thyroid pathway mRNA induction: Call” value is on record as “Negative”. Further, in [11], the Vapor pressure is given as 0.01 Pa. Also, the “Estrogen pathway Reporter protein Agonist: Call” value in series [12] is “Positive”. The pKa in series [28] was 9.82. For the same compound, the SED total in series [29] is 24.14 × 0.5/100 × 10.5/100 = 0.01267 mg/kg/d. In [14], the “Estrogen: Experimental Data (call)” value is on record as “Positive”. Moreover, the figures for the “Estrogen: assays active / assays” value in series [14] and in [14] (listed as Benzyl salicylate) were 9 out of 18 and 9/18 assays active, respectively. In series [15], the “Estrogen pathway mRNA induction: Call” value is on record as “Positive”. Besides, the “Estrogen pathway Dimerisation: Call” value in series [16] is “Positive”. Besides, the “Thyroid pathway receptor binding (THRa): Call” value in [30] was “Negative”. Moreover, the “Estrogen pathway Reporter protein Antagonist: Call” value in [17] is recorded as “Negative”. The “Thyroid pathway Reporter protein Agonist: Call” value in series [19] is recorded as “Negative”. Besides, the “Estrogen pathway Cell Proliferation: Call” value in series [31] was “Positive”. For the same compound, the fraction unbound in series [32] was found to be 0.0066.
On to `O=Cc1ccccc1` [Benzaldehyde, benzaldehyde], for which the Total recovery result in series [5] (24 h after application of 0.5% BSal in formulation, SA corrected by the amount of SA present in the formulation) is reported as “< LOQ*”.
Consider `O=C(O)CNC(=O)c1ccccc1` [Hippuric acid, hippuric acid], for which, in [5], the Receptor fluid entry is given as “< LOQ*” and the Surface result is reported as “< LOQ*”. The “Steroidogenesis Aromatase: Call” value in series [7] is on record as “Negative”. Moreover, the “Thyroid pathway Reporter protein Antagonist: Call” value in series [9] is “Negative”. Moreover, in [33], the “Result in all 259 ToxCast assays” value is “SA: alerts for developmental toxicity, reproductive toxicity, nephrotoxicity, hepatotoxicity, Hippuric acid: negative in all 259 ToxCast assays”. Further, the “Thyroid pathway Reporter protein Agonist: Call” value in series [19] was “Negative”.
Consider `CC(/C=C/C(=O)NO)=C\[C@@H](C)C(=O)c1ccc(N(C)C)cc1` [trichostatin A, Trichostatin A], for which the “Number of genes altered by > 1.5-fold or < -1.5-fold” value in [34] (6 h) and in series [34] (24 h) was ~10,000 genes throughout.
